According to patent US20030065039A1, “Biologically active 1,3-bis-aromatic-prop-2-en-1-ones, 1,3-bis-aromatic-propan-1-ones, and 1,3-bis-aromatic-prop-2-yn-1-ones” (Statens Serum Institute, priority 1997, published 2003):

How the values were obtained:
[1] = system: cytomegalovirus AD-169 strain; experiment: Activity against cytomegalovirus in HEL cells (plaque formation); assay type: cell-based; conditions: virus plaque formation reduced by 50%, 100 PFU, values given as fractions
Method: (§1) IC50 values are determined by the virus plaque formation and/or the virus cytopathic assay using standard methods well-known in the art.

[2] = system: cytomegalovirus Davis strain; experiment: as above; assay type: cell-based; conditions: virus plaque formation reduced by 50%, 100 PFU, values given as fractions
Method: as §1

Vero cell cultures = experiment: Cytotoxicity in Vero cell cultures; assay type: cell-based; conditions: Vero cells; values given as fractions, footnote a not given
Source text: (§2) In the following is reported the results from a Vero cell culture infected with different viruses. The cell culture used as well as the methods applied are well known to a person skilled in the art.

Reovirus-1 = experiment: Antiviral activity in Vero cell cultures; assay type: cell-based; conditions: Vero cells; values given as fractions
Method: as §1, §2

Sindbis virus = experiment: Antiviral activity in Vero cell cultures; assay type: cell-based; conditions: Vero cells; values given as fractions
Method: as §1, §2

Parainfluenza-3 Virus = experiment: Antiviral activity in Vero cell cultures; assay type: cell-based; conditions: Vero cells; values given as fractions
Method: as §1, §2

Simliki forest virus = experiment: Antiviral activity in Vero cell cultures; assay type: cell-based; conditions: Vero cells; values given as fractions
Method: as §1, §2

Coxsackie virus B4 = experiment: Antiviral activity in Vero cell cultures; assay type: cell-based; conditions: Vero cells; values given as fractions
Method: as §1, §2

[3] = system: human embryonic lung (HEL) cells; experiment: Cytotoxicity in human embryonic lung (HEL) cells; assay type: cell-based; conditions: HEL cell growth reduced by 50%; values given as fractions
[4] = biological target: T1, succinate dehydrogenase of Helicobacter pylori (Helicobacter pylori, UniProt O06913); assay type: biochemical
T1 construct: endogenous in cells; host or cells: Helicobacter pylori (preparation for the SDH measurement not described; sonicate mentioned for FRD)
T1 sequence (O06913 1-714): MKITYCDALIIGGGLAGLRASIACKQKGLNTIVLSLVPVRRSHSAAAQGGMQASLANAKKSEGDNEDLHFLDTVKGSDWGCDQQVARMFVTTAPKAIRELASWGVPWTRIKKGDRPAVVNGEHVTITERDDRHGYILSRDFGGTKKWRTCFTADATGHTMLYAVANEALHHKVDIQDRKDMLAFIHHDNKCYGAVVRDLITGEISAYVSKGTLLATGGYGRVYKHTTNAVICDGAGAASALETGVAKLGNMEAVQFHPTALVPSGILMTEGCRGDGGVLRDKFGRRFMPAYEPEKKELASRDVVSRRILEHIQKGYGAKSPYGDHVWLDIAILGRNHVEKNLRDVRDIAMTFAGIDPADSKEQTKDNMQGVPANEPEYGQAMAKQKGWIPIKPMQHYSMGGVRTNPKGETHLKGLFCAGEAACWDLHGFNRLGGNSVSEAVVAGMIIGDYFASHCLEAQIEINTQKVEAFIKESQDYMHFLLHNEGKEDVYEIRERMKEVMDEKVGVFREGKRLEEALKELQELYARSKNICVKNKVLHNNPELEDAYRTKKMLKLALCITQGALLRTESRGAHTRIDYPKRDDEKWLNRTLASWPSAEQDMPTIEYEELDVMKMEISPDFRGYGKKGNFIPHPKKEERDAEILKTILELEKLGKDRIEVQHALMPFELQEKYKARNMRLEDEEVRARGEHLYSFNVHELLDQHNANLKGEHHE
T1 sequence (O06914 1-245 partner): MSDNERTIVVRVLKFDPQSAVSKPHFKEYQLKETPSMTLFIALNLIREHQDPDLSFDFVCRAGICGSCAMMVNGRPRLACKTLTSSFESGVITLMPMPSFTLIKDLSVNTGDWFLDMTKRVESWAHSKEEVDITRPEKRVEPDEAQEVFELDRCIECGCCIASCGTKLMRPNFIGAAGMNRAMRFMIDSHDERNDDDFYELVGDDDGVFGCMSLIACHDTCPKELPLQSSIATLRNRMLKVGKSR
T1 sequence (O06912 1-255 partner): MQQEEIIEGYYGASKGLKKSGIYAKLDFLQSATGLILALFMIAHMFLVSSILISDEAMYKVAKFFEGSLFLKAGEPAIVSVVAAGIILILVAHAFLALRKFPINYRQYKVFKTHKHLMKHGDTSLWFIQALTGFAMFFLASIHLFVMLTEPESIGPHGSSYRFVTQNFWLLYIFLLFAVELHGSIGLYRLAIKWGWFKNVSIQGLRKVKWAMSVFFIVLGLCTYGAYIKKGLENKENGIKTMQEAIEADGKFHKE

Leishmania promastigotes = Leishmania promastigotes Assay; assay type: cell-based; conditions: Leishmania; promastigotes, 3H-thymidine uptake; read-out: Leishmania IC50 ± SD
Summary of the method: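 L. major (WHO Iran vaccine strain) and L. donovani MHOM/KE/85/NLB 274 promastigotes (3×10^6/ml, day 3 and 6 cultures) exposed to compound 2 h at 26 °C, then 3H-thymidine 18 h; incorporation counted by scintillation. Microscopic counts and flagellar motility also assessed.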

[5] = Preliminary 14 days oral toxicity study in rats; assay type: in vivo; conditions: highest dose level 1000 mg/kg/day
Method: A preliminary 14 days oral toxicity study in rats was carried out with 6 compounds. Observations included clinical signs, body weights, food intake, haematology, clinical chemistry and macroscopic pathology.

human lymphocytes = experiment: Lymphocyte Proliferation Assay; assay type: cell-based; conditions: Lymphocyte; PHA provoked proliferation of human lymphocytes; read-out: Lymphocytes IC50 ± SD
Summary of the method: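 Ficoll-isolated human blood mononuclear cells (0.63×10^5/ml) in RPMI 1640 with 5% FCS were cultured in triplicate with test compound and PHA or PPD for 3 or 7 days. Proliferation measured by ^3H-thymidine incorporation over the final 24 h; triplicate median recorded.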

Plasmodium falciparum = Plasmodium falciparum Assay; assay type: cell-based; conditions: Plasmodium falciparum; 3-H-hypoxanthine incorporation, 48 hours; read-out: Plasmodium IC50 ± SD
Summary of the method: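 Parasitized erythrocytes (~1% parasitemia, 5×10^8/ml) cultured 48 h in RPMI with test compound, with 3H-hypoxanthine added for the last 24 h. Growth inhibition read as 3H-hypoxanthine incorporation into parasite DNA by liquid scintillation; uninfected and untreated infected cultures run in parallel.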

Compound | Antiviral activity IC50, AD-169 strain, Assay 1 [1] | Antiviral activity IC50, Davis strain, Assay 1 [2] | Minimum Cytotoxic Concentration (Vero cell cultures) | Minimum inhibitory concentration, Reovirus-1 (Reovirus-1) | Minimum inhibitory concentration, Sindbis virus (Sindbis virus) | Minimum inhibitory concentration, Parainfluenza-3 Virus (Parainfluenza-3 Virus) | Minimum inhibitory concentration, Simliki forest virus (Simliki forest virus) | Minimum inhibitory concentration, Coxsackie virus B4 (Coxsackie virus B4) | Cytotoxicity CC50 [3] | activity of succinate dehydrogenase [4] | IC50 (Leishmania promastigotes) [µM] | toxic effects [5] | IC50 (human lymphocytes) [µM] | IC50 (Plasmodium falciparum) [µM]
C=CCOc1ccc(C(=O)/C=C/c2cc(OC)c(OC)c(OC)c2)cc1 [3,4,5m4′ac] | 1/150 | 1/85 | <1/100 | <1/100 | 1/2000 | 1/2000 | 1/600 | 1/2000 | <1/60 | – | – | – | – | –
malonate | – | – | – | – | – | – | – | – | – | concentration-dependent inhibitory effect | – | – | – | –
O=C(/C=C/c1ccccc1)c1ccc(O)cc1 [4′-OH, 4′-hydroxychalcone] | – | – | – | – | – | – | – | – | – | – | 16 ± 1 | inconclusive effect | 28 ± 1 | 21
C=CCOc1ccc(C(=O)/C=C/c2c(OC)cc(OC)cc2OC)cc1 [2,4,6m4′ac] | 1/200 | 1/120 | <1/100 | <1/100 | 1/2000 | 1/2000 | 1/600 | 1/600 | <1/30 | – | – | – | – | –
C=CCOc1ccc(C(=O)/C=C/c2cc(OC)c(OC)cc2OC)cc1 [2,4,5m4′ac] | 1/60 | <1/30 | <1/100 | <1/100 | 1/2000 | 1/2000 | 1/600 | 1/600 | <1/30 | – | – | – | – | –
COc1ccc(/C=C/C(=O)c2ccc(O)cc2)c(OC)c1 [24m4′hc, 2,4-dimethoxy-4′hydroxychalcone] | – | – | – | – | – | – | – | – | – | – | 48 ± 3 | No toxic effects | 71 ± 5 | 11
COc1cccc(OC)c1/C=C/C(=O)c1ccc(O)cc1 [2,6m4′hc] | 1/150 | 1/300 | <1/100 | <1/100 | 1/2000 | 1/600 | 1/600 | 1/600 | 1/80 | – | – | – | – | –
C=CCOc1ccc(C(=O)/C=C/c2ccc(OC)cc2OC)cc1 [24m4′ac, 2,4-dimethoxy-4′allyloxychalcone] | – | – | – | – | – | – | – | – | – | – | – | No toxic effects | – | –
C=CCOc1ccc(C(=O)/C=C/c2cccc(OC)c2OC)cc1 [2,3m4′ac] | <1/30 | <1/30 | <1/100 | <1/100 | <1/100 | <1/100 | <1/100 | <1/100 | <1/30 | – | – | – | – | –
COc1ccc(/C=C/C(=O)c2ccccc2)c(OC)c1 [2,4mc] | <1/30 | 1/35 | <1/100 | <1/100 | <1/100 | <1/100 | <1/100 | <1/100 | <1/30 | – | – | – | – | –
COc1ccc(/C=C/C(=O)c2ccc(O)cc2)cc1OC [3,4m4′hc] | 1/45 | 1/55 | <1/100 | <1/100 | <1/100 | <1/100 | <1/100 | <1/100 | <1/30 | – | – | – | – | –
C=CCOc1ccc(C(=O)/C=C/c2ccc(OC)c(OC)c2)cc1 [34m4′ac, 3,4-dimethoxy-4′-allyloxychalcone] | <1/30 | 1/100 | <1/100 | <1/100 | 1/60000 | 1/6000 | 1/2000 | 1/60000 | <1/30 | – | 60 ± 5 | No toxic effects | 51 ± 6 | 32
C=CCOc1ccc(C(=O)/C=C/c2cc(OC)ccc2OC)cc1 [2,5m4′ac] | 1/35 | 1/55 | <1/100 | <1/100 | <1/100 | <1/100 | <1/100 | <1/100 | <1/30 | – | – | – | – | –
COc1ccc(/C=C/C(=O)c2ccccc2O)c(OC)c1 [2,4m2′hc] | <1/60 | <1/60 | <1/100 | <1/100 | <1/100 | <1/100 | <1/100 | <1/100 | <1/60 | – | – | – | – | –
O=C(O)/C=C/C(=O)O [Fumarate] | – | – | – | – | – | – | – | – | – | concentration-dependent inhibitory effect | – | – | – | –
